Experimental data taken from patent publication US20140377390A1, “Cosmetic Compositions Comprising Plant Extracts for Combating Skin Aging” (CASTER, priority 2013, published 2014).
[ ]: non-standard residue; d: D form. Cit = NC(=O)NCCC[C@H](N)C(=O)O

Columns and labels:
[1] = tested on: primary human fibroblast cells (HDFa); experiment: Evaluation of cytotoxicity, MTT colorimetric test (cell vitality); type: cell-based; settings: relative to untreated cells = 100%
Source text: This test serves to define the maximum tolerable dose that can be used on the cells without a toxic effect, by means of a rapid and sensitive quantification of the cell proliferation and of the cell viability as a function of the compositions according to the invention.
Briefly, the colorimetric test is based on the activity of a mitochondrial enzyme, succinate dehydrogenase, which degrades the yellow substrate MTT (3-[4,5-dimethylthiazol-2-yl]-2,5-diphenyltetrazolium bromide) into formazan crystals (violet). The amount of formazan salt produced by the cells from the MTT indicates the cell vitality and is measured by spectrophotometry at 570 nm.
In passage 3, the cells were seeded into 96-well plates in a proportion of 2000 cells in a volume of 200 μl of culture medium (Tebu-Bio—Fibroblast Growth Medium—500 ml—Ref 95116500).
On day 7 after seeding of the cells (the medium having been replaced with fresh medium every two days), the culture medium (Tebu-Bio—Fibroblast Growth Medium—500 ml—Ref. 95116500) is removed and 200 μl of the active agent to be tested, diluted in culture medium (no less than 50% of medium), are added and then the cells are reincubated (37° C., 5% CO2).
On the day of the test, 2 ml of fresh MTT solution are prepared by diluting the MTT powder (Thiazolyl Blue Tetrazolium Bromide, Sigma ref. M 5655) to 5 mg/ml in PBS.
20 μl of MTT solution are added to each well. After homogenization, the plate is reincubated (37° C., 5% CO2) for 3 to 4 hours so as to allow metabolization of the MTT.
During this time, the MTT solubilization solution is prepared (DMSO/Isopropanol—1:1). The culture medium is removed by suctioning, and then the plate is dried with absorbent paper. The formazan crystals which have formed are then resuspended with 150 μl of MTT solubilization solution, by agitation at 150 rpm for 15 minutes at ambient temperature.
The optical density is then read at 570 nm on a Perkin Elmer Enspire® Multimode Reader spectrophotometer, with the OD at 670 nm (background noise) being removed.
The result is expressed as a function of the % absorption relative to the % absorption noted for the control cells (not treated with a compound).

[2] = tested on: MDR (Multidrug Resistance Proteins) in HDFa cells; experiment: MDR activity test (calcein retention, Vybrant MDR Resistance Assay Kit); settings: 24 hours, control = 100%
Source text: In normal cells, non-fluorescent calcein enters the cell and accumulates therein. It is hydrolysed therein by endogenous esterases, and becomes fluorescent. In cells in which MDR expression is increased, the presence of these protein transporters makes it possible to expel the calcein out of the cell before it is cleaved: there is no fluorescence.
To do this, the Molecular Probes Vybrant MDR Resistance Assay Kit (V13180 Invitrogen Life Science) is used.
These cells are then in passage 4. The cells are left to stand for 48 h for adhesion in an incubator at 37° C. and 5% CO2. […] This stock solution at 10 mg/ml is then diluted in PBS until the working concentration is obtained; • 5 wells with FGF (Sigma) at 5 nM final concentration in the well (positive control) or KGF (Sigma) at 25 ng/ml.
The cells comprising active agents are incubated at 37° C., 5% CO2 for 24 hours.
On D3, a labelling solution is prepared by diluting the calcein solution of the kit at 1 mM (component A of the Invitrogen Life Science kit V13180) in PBS, so as to achieve a concentration of 1 μM (1000× dilution); 50 μl of calcein diluted to 1 μM are provided per well, i.e. 5 ml per 96-well plate. […]
The calcein retention is measured on a Perkin Elmer Enspire® Multimode Reader fluorescence spectrophotometer, by reading the fluorescein fluorescence (λexcitation: 494 nm, λemission: 512 nm). […]

Question: H-KDV[Cit]-NH2 [Peptide] was tested. Which “% vitality” value ([1]; peptide concentration 0.000001%) did it give?
Answer: 94.6%

Question: And the “% vitality” value ([1]; peptide concentration 0.00001%)?
Answer: 71.0%

Question: And the “% vitality” value ([1]; peptide concentration 0.00002%)?
Answer: 66.9%

Question: And the “% vitality” value ([1]; peptide concentration 0.00004%)?
Answer: 72.0%

Question: And the “% vitality” value ([1]; peptide concentration 0.00006%)?
Answer: 44.7%

Question: And the “% vitality” value ([1]; peptide concentration 0.00008%)?
Answer: 57.3%

Question: And the “% vitality” value ([1]; peptide concentration 0.0001%)?
Answer: 39.8%

Question: And the “% vitality” value ([1]; peptide concentration 0.0002%)?
Answer: 47.6%

Question: And the “% vitality” value ([1]; peptide concentration 0.005%)?
Answer: 49.7%

Question: For COc1ccc(CCN(C)CCCC(C#N)(c2ccc(OC)c(OC)c2)C(C)C)cc1OC (centres unmarked) [Verapamil, verapamil, reference compound], which “% calcein retention” value ([2]; 30 μg/ml, greater than 100 = inhibits MDR activity) is on record?
Answer: 139.1%

B1: KGF: KGF (Sigma), growth factor, positive control (protein, UniProt P21781 32-194, looked up)
Fibroblast growth factor 7: CNDMTPEQMATNVNCSSPERHTRSYDYMEGGDIRVRRLFCRTQWYLRIDKRGKVKGTQEMKNNYNIMEIRTVAVGIVAIKGVESEFYLAMNKEGKLYAKKECNEDCNFKELILENHYNTYASAKWTHNGGEMFVALNQKGIPVRGKKTKKEQKTAHFLPMAIT
Question: Which “% calcein retention” value ([2]; 25 ng/ml, less than 100 = stimulates MDR activity) does the source give for B1 here?
Answer: 92.3%
